Assays:
rat [1] = conditions: Subchronic oral toxicity in rodents, sprague dawley, Feed, dose end: 93 day, group: systemic
mouse [2] = conditions: Carcinogenicity, cd1, Oral, Feed, dose end: 81 week, group: systemic
rat [3] = conditions: Prenatal developmental toxicity study, sprague dawley, Oral, Gavage/Intubation, dose end: 15 GD
dog = conditions: Chronic toxicity, beagle, Oral, Capsule, dose end: 12 month, group: systemic
rat [4] = conditions: Multigenerational reproductive toxicity study, sprague dawley, Oral, Feed, dose end: 2 generation; for LOAEL: systemic / organ weight / brain / nos
mouse [5] = conditions: Subchronic oral toxicity in rodents, other, Feed, dose end: 90 day, group: systemic
rat [6] = conditions: Subchronic oral toxicity in rodents, sprague dawley, Feed, dose end: 90 day, group: systemic
rat [7] = conditions: Subchronic oral toxicity in rodents, sprague dawley, Feed, dose end: 90 day, group: systemic; remark: listed apart in the source
rat [8] = conditions: Subchronic oral toxicity in rodents, sprague dawley, Feed, dose end: 90 day, group: systemic, systemic / in life observation / body weight / body weight + systemic / in life observation / body weight / body weight gain + systemic / in…
rat [9] = conditions: Combined chronic toxicity/carcinogenicity, sprague dawley, Oral, [Not Specified], dose end: 2 year, group: systemic
[10] = systemic / clinical chemistry / cholesterol / cholesterol + systemic / organ weight / liver / absolute + systemic / organ weight / liver / …
[11] = systemic / pathology gross / liver / enlarged
[12] = systemic / in life observation / body weight / body weight + systemic / in life observation / body weight / body weight gain + systemic / in…
[13] = group: developmental, developmental / developmental malformation / bone / incomplete ossification + systemic / in life observation / body weight / fetal weight
[14] = group: maternal, systemic / in life observation / body weight / body weight gain + systemic / in life observation / food consumption / food consumption
[15] = systemic / clinical chemistry / alkaline phosphatase (alp/alk) / alkaline phosphatase (alp/alk) + systemic / clinical chemistry / …
[16] = systemic / clinical chemistry / alkaline phosphatase (alp/alk) / alkaline phosphatase (alp/alk) + systemic / in life observation / clinical …
[17] = group: offspring, systemic / organ weight / brain / nos + systemic / in life observation / body weight / offspring (pup) weight + systemic / organ weight / …
[18] = systemic / organ weight / liver / relative to brain weight + systemic / pathology gross / liver / [other] + systemic / pathology microscopic…
[19] = systemic / pathology microscopic / spleen / pigmentation
[20] = systemic / organ weight / liver / absolute + systemic / organ weight / liver / relative to body weight + systemic / organ weight / liver / …
[21] = systemic / pathology gross / liver / [other] + systemic / pathology microscopic / thyroid gland / colloid content
[22] = systemic / organ weight / liver / relative to body weight + systemic / pathology microscopic / liver / cytoplasmic alteration + systemic / …

Work on `CSC1=N[C@@](C)(c2ccccc2)C(=O)N1Nc1ccccc1` [Fenamidone] yielded an LOAEL (rat [1]; [10]) of 93.3 mg/kg/day, an NOAEL (rat [1]; [10]) of 9.4 mg/kg/day and an LEL (rat [1]; [11]) of 9.4 mg/kg/day. It also gave an NEL (rat [1]; [11]) of under 9.4 mg/kg/day, an LOAEL (mouse [2]; [12]) of 526 mg/kg/day and an NEL (mouse [2]; [12]) of 9.5 mg/kg/day. It also gave an NOAEL (mouse [2]; [12]) of 47.5 mg/kg/day, an LEL (mouse [2]; systemic / organ weight / liver / nos) of 47.5 mg/kg/day and an LEL (rat [3]; [13]) of 1000 mg/kg/day. For the same compound, the LOAEL (rat [3]; [13]) was 1000 mg/kg/day, the NEL (rat [3]; [13]) was 150 mg/kg/day and the NOAEL (rat [3]; [13]) was 150 mg/kg/day. It also gave an LEL (rat [3]; [14]) of 1000 mg/kg/day, an LOAEL (rat [3]; [14]) of 1000 mg/kg/day and an NEL (rat [3]; [14]) of 150 mg/kg/day. The NOAEL (rat [3]; [14]) was 150 mg/kg/day, the LEL (dog; [15]) was 1000 mg/kg/day and the LOAEL (dog; [15]) was 1000 mg/kg/day. It also gave an NEL (dog; [16]) of 100 mg/kg/day, an NOAEL (dog; [16]) of 100 mg/kg/day and an LOAEL (rat [4]; group: offspring) of 89.2 mg/kg/day. It also gave an LEL (rat [4]; group: offspring, systemic / organ weight / brain / nos + systemic / in life observation / body weight / offspring (pup) weight) of 89.2 mg/kg/day, an NEL (rat [4]; [17]) of 5.45 mg/kg/day and an NOAEL (rat [4]; [17]) of 5.45 mg/kg/day. For the same compound, the LEL (rat [4]; group: parental, systemic / in life observation / food consumption / food consumption) was 63.8 mg/kg/day, the NEL (rat [4]; group: parental, systemic / in life observation / food consumption / food consumption + systemic / in life observation / body weight / body weight + systemic…) was 3.9 mg/kg/day and the LOAEL (rat [4]; group: parental) was 89.2 mg/kg/day. It also gave an NOAEL (rat [4]; group: parental, systemic / organ weight / brain / nos + systemic / in life observation / body weight / body weight + systemic / organ weight / liver / …) of 5.45 mg/kg/day, an LOAEL (mouse [5]; [18]) of 220 mg/kg/day and an NOAEL (mouse [5]; [18]) of 44.5 mg/kg/day. The LEL (mouse [5]; [19]) was 11.3 mg/kg/day, the NEL (mouse [5]; [19]) was under 11.3 mg/kg/day and the LOAEL (rat [6]; [20]) was 32.9 mg/kg/day. The NOAEL (rat [6]; [20]) was 6.42 mg/kg/day, the LEL (rat [6]; [21]) was 6.42 mg/kg/day and the NEL (rat [6]; [21]) was under 6.42 mg/kg/day. The LEL (rat [7]; systemic / clinical chemistry / aspartate aminotransferase (ast/sgot) / aspartate aminotransferase (ast/sgot)) was 10.4 mg/kg/day, the LOAEL (rat [7]; systemic / organ weight / liver / relative to body weight + systemic / pathology microscopic / liver / cytoplasmic alteration) was 68.3 mg/kg/day and the NEL (rat [7]; [22]) was 4.05 mg/kg/day. It also gave an NOAEL (rat [7]; [22]) of 10.4 mg/kg/day, an LEL (rat [8]) of 305 mg/kg/day and an LOAEL (rat [8]) of 305 mg/kg/day. For the same compound, the NEL (rat [8]) was 29.7 mg/kg/day, the NOAEL (rat [8]) was 29.7 mg/kg/day and the NEL (rat [9]; systemic / organ weight / uterus / absolute + systemic / organ weight / uterus / relative to body weight) was 335 mg/kg/day. For the same compound, the LOAEL (rat [9]; systemic / pathology microscopic / thyroid gland / hyperplasia) was 7.07 mg/kg/day and the NOAEL (rat [9]; systemic / pathology microscopic / thyroid gland / hyperplasia + systemic / clinical chemistry / alanine aminotransferase (alt/sgpt) / …) was 2.83 mg/kg/day.

— EPA's ToxRefDB 2
